The record followed here is US20120046306A1, “Substituted Heteroaryl Spiropyrrolidine MDM2 Antagonists” (priority 2010, published 2012).

Sequence of interaction between p53 and MDM2 proteins (Q00987 whole entry): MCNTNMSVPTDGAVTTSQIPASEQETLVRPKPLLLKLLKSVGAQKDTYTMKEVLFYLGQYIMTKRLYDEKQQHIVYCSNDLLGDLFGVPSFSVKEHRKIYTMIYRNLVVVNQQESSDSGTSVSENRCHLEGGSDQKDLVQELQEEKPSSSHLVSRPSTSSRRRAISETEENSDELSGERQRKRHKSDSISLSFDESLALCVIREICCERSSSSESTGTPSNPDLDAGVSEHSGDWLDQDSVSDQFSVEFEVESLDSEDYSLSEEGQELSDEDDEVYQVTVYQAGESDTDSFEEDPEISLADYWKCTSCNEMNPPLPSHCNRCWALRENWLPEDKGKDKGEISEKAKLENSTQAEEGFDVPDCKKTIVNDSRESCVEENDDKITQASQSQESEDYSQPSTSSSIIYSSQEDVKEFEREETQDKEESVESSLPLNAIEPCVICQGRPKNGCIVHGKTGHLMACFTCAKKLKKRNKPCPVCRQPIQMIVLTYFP

The test concerns the target interaction between p53 and MDM2 proteins (Homo sapiens, UniProt Q00987). Description: HTRF assay of inhibition of p53-MDM2 interaction. It is filed as binding. The conditions noted are these: GST-MDM2 and biotinylated p53 peptide, bsa: 0.02%. The method, then:
The ability of the compounds to inhibit the interaction between p53 and MDM2 proteins was measured by an HTRF (homogeneous time-resolved fluorescence) assay in which recombinant GST-tagged MDM2 binds to a peptide that resembles the MDM2-interacting region of p53. Binding of GST-MDM2 protein and p53-peptide (biotinylated on its N-terminal end) is registered by the FRET (fluorescence resonance energy transfer) between Europium (Eu)-labeled anti-GST antibody and streptavidin-conjugated Allophycocyanin (APC).
Add 20 uL streptavidin-APC and Eu-anti-GST antibody mixture (6 nM Eu-anti-GST and 60 nM streptavidin-APC working solution) in TBS buffer with 0.2% BSA, shake at room temperature for 30 minutes and read using a TRF-capable plate reader at
If not specified, the reagents were purchased from Sigma Chemical Co.
A general note: Time-resolved FRET reads energy transfer from a long-lived donor to a nearby acceptor.
Molecule `COc1cc2c(cn1)[C@@]1(C(=O)N2)[C@H](CC(C)(C)C)N[C@@H](C(=O)Nc2ccc(C(=O)O)cc2OC)[C@@H]1c1cccc(Cl)c1F` (racemic) [Example 111, rac-4-((2S,3R,4S,5R)-4-(3-chloro-2-fluorophenyl)-6′-methoxy-2-neopentyl-2′-oxo-1′,2′-dihydrospiro[pyrrolidine-3,3′-pyrrolo[3,2-c]pyridine]-5-ylcarboxamido)-3-methoxybenzoic acid] yielded an IC50 of 7 nM.

The molecule `COc1cc(C(=O)O)ccc1NC(=O)[C@@H]1N[C@@H](CC(C)(C)C)[C@@]2(C(=O)Nc3ccc(Cl)nc32)[C@H]1c1cccc(Cl)c1F` (racemic) [Example 47, rac-4-((2S,3S,4S,5R)-5′-chloro-4-(3-chloro-2-fluorophenyl)-2-neopentyl-2′-oxo-1′,2′-dihydrospiro[pyrrolidine-3,3′-pyrrolo[3,2-b]pyridine]-5-ylcarboxamido)-3-methoxybenzoic acid] registered an IC50 of 34.5 nM.

In turn, `COC(=O)c1ccc(NC(=O)[C@@H]2N[C@@H](CC(C)(C)C)[C@@]3(C(=O)Nc4c(Cl)ccnc43)[C@H]2c2cccc(Cl)c2F)c(OC)c1` (racemic) [Example 123, methyl rac-4-((2S,3S,4S,5R)-7′-chloro-4-(3-chloro-2-fluorophenyl)-2-neopentyl-2′-oxo-1′,2′-dihydrospiro[pyrrolidine-3,3′-pyrrolo[3,2-b]pyridine]-5-ylcarboxamido)-3-methoxybenzoate] returned an IC50 of 6250 nM.

Molecule `CC(C)(C)C[C@@H]1N[C@@H](C(=O)Nc2ccc(C(=O)O)cc2)[C@H](c2cccc(Cl)c2F)[C@]12C(=O)Nc1cc(Cl)ncc12` (racemic) [Example 28, rac-4-((2S,3R,4S,5R)-6′-chloro-4-(3-chloro-2-fluorophenyl)-2-neopentyl-2′-oxo-1′,2′-dihydrospiro[pyrrolidine-3,3′-pyrrolo[3,2-c]pyridine]-5-ylcarboxamido)benzoic acid] showed an IC50 of 10.5 nM.

On to `COc1cc(OCCO)ccc1NC(=O)[C@@H]1N[C@@H](CC(C)(C)C)[C@@]2(C(=O)Nc3cc(Cl)cnc32)[C@H]1c1cccc(Cl)c1F` [Example 75, (2S,3S,4S,5R)-6′-chloro-4-(3-chloro-2-fluorophenyl)-N-(4-(2-hydroxyethoxy)-2-methoxyphenyl)-2-neopentyl-2′-oxo-1′,2′-dihydrospiro[pyrrolidine-3,3′-pyrrolo[3,2-b]pyridine]-5-carboxamide], for which the IC50 came out at 6.4 nM.

On to `COC(=O)c1ccc(NC(=O)[C@@H]2N[C@@H](CC(C)(C)C)[C@@]3(C(=O)Nc4cc(Cl)cnc43)[C@H]2c2cccc(Br)c2F)c(OC)c1` (racemic) [Example 66, methyl rac-4-{(2S,3R,4S,5R)-4-(3-bromo-2-fluorophenyl)-6′-chloro-2-neopentyl-2′-oxo-1′,2′-dihydrospiro[pyrrolidine-3,3′-pyrrolo[3,2-b]pyridine]-5-ylcarboxamido}-3-methoxybenzoate], for which 1830 nM corresponded to half-maximal inhibition (IC50).

The molecule `COc1cc(C(N)=O)ccc1NC(=O)[C@@H]1N[C@@H](CC(C)(C)C)[C@@]2(C(=O)Nc3cc(Cl)cnc32)[C@H]1c1cccc(Br)c1F` (racemic) [Example 69, rac-(2S,3S,4S,5R)-4-(3-bromo-2-fluorophenyl)-N-(4-carbamoyl-2-methoxyphenyl)-6′-chloro-2-neopentyl-2′-oxo-1′,2′-dihydrospiro[pyrrolidine-3,3′-pyrrolo[3,2b]pyridine]-5-carboxamide] displayed an IC50 of 12.9 nM.

For `COC(=O)c1ccc(NC(=O)[C@@H]2N[C@@H](CC(C)(C)C)[C@@]3(C(=O)Nc4nc(Cl)ccc43)[C@H]2c2cccc(Cl)c2F)c(OC)c1` (racemic) [Example 35, methyl rac-4-((2S,3R,4S,5R)-6′-chloro-4-(3-chloro-2-fluorophenyl)-2-neopentyl-2′-oxo-1′,2′-dihydrospiro[pyrrolidine-3,3′-pyrrolo[2,3-b]pyridine]-5-ylcarboxamido)-3-methoxybenzoate], the midpoint of inhibition, the IC50, lay at 14.5 nM.

For `COC(=O)c1ccc(NC(=O)[C@@H]2N[C@@H](CC(C)(C)C)[C@@]3(C(=O)Nc4cc(F)cnc43)[C@H]2c2cccc(Cl)c2F)c(OC)c1` (racemic) [Example 83, methyl rac-4-((2S,3S,4S,5R)-4-(3-chloro-2-fluorophenyl)-6′-fluoro-2-neopentyl-2′-oxo-1′,2′-dihydrospiro[pyrrolidine-3,3′-pyrrolo[3,2-b]pyridine]-5-ylcarboxamido)-3-methoxybenzoate], the half-inhibitory concentration (IC50) was 19.5 nM.

In turn, `COc1cc(OCCOC(C)=O)ccc1NC(=O)[C@@H]1N[C@@H](CC(C)(C)C)[C@@]2(C(=O)Nc3cc(Cl)ncc32)[C@H]1c1cccc(Cl)c1F` (racemic) [Example 116, rac-2-(4-((2S,3R,4S,5R)-6′-chloro-4-(3-chloro-2-fluorophenyl)-2-neopentyl-2′-oxo-1′,2′-dihydrospiro[pyrrolidine-3,3′-pyrrolo[3,2-c]pyridine]-5-ylcarboxamido)-3-methoxyphenoxy)ethyl acetate] had an IC50 of 12 nM.

In turn, `COC(=O)c1ccc(NC(=O)[C@@H]2N[C@@H](CC(C)(C)C)[C@@]3(C(=O)Nc4cc(C)ncc43)[C@H]2c2cccc(Cl)c2F)c(OC)c1` (racemic) [Example 119, methyl rac-4-((2S,3R,4S,5R)-4-(3-chloro-2-fluorophenyl)-6′-methyl-2-neopentyl-2′-oxo-1′,2′-dihydrospiro[pyrrolidine-3,3′-pyrrolo[3,2-c]pyridine]-5-ylcarboxamido)-3-methoxybenzoate] had an IC50 of 11.6 nM.

As a reminder, the IC50 is the concentration that inhibits the measured activity by half. A higher IC50 goes with weaker potency in that assay.
